Article PMC5011961, “In vitro antimicrobial activities of animal-used quinoxaline 1,4-di-N-oxides against mycobacteria, mycoplasma and fungi” (BMC Veterinary Research, 2016)
Values after ≈ are worked out from the molar mass of the structure shown. Like-named read-outs stand apart in the source and are kept apart here.

Experiments:
[1] = tested on: M. tuberculosis H37Rv ATCC 27294; assay: Microdilution alamar blue assay (MABA); format: cell-based, Mycobacterium tuberculosis
[2] = tested on: M. bovis ATCC 19210; assay: microbe, parasite or virus in culture; format: cell-based, Mycobacterium bovis
[3] = tested on: PK-15 cells; assay: Cytotoxicity assay (MTT); conditions: for TC50: PK-15, 72 h, MTT, mean ± SD, n = 4; for MNTC: PK-15, maximum non-cytotoxic concentration (90 % cell viability)
[4] = tested on: PPV; assay: Antiviral assay (CPE/MTT; adsorption inhibition, infection inhibition, virucidal); format: cell-based, porcine parvovirus; set-up: key to IC50: “--” represent not detected owing to the low inhibition ratio; conditions: for IC50: PPV, mean±SD of four experiments
[5] = tested on: IBDV; assay: as above; format: cell-based, infectious bursal disease virus; set-up: key to IC50: “--” represent not detected owing to the low inhibition ratio; conditions: for IC50: IBDV, mean±SD of four experiments
[6] = tested on: DF-1 cells; assay: Cytotoxicity assay (MTT); conditions: for TC50: DF-1, 72 h, MTT, mean ± SD, n = 4; for MNTC: DF-1, maximum non-cytotoxic concentration (90 % cell viability)
[7] = tested on: PRRSV; assay: Antiviral assay (CPE/MTT; adsorption inhibition, infection inhibition, virucidal); format: cell-based, porcine reproductive and respiratory syndrome virus; set-up: key to IC50: “--”represent not detected owing to the low inhibition ratio; conditions: for IC50: PRRSV, mean±SD of four experiments
[8] = tested on: Marc-145 cells; assay: Cytotoxicity assay (MTT); conditions: for TC50: Marc-145, 72 h, MTT, mean ± SD, n = 4; for MNTC: Marc-145, maximum non-cytotoxic concentration (90 % cell viability)
[9] = tested on: Candida tropicalis; assay: Antifungal assay, macrobroth 2-fold serial dilution MIC
[10] = tested on: Candida parapsilosis; assay: as above; conditions: Lodderomyces parapsilosis
[11] = tested on: Cryptococcus neoformans; assay: as above
[12] = tested on: Candida albicans; assay: as above
[13] = tested on: Trichophyton rubrum; assay: as above
[14] = tested on: Epidermophyton floccosum; assay: as above
[15] = tested on: Microsporum canis; assay: as above
[16] = tested on: Aspergillus fumigatus; assay: as above
[17] = tested on: M. gallisepticum; assay: Antimycoplasma assay, MIC in microtiter plates; conditions: Mycoplasmoides gallisepticum
Description: Briefly, 96-well microtiter Sensititre plates containing stabilized and freeze-dried antimicrobials were used. Three wells on each plate were set as antimicrobial free growth control. Freshly thawed mycoplasma isolates with known titers were diluted in liquid medium until the number of organisms reached 10^4 color changing units/mL. 50 μL of the diluted culture was transferred into each well of the Sensititre plates. […] The plates were sealed using an adhesive foil and incubated at 36 °C for 14 days. The growth of M. hyopneumoniae was observed daily when the color of the medium changed from red to yellow (phenol red indicator), and the initial and final MICs were recorded.

[18] = Mycobacterium tuberculosis, read-out: MIC
[19] = Mycobacterium tuberculosis variant bovis, ATCC19210
[20] = M. gallisepticum BG44T (10^4ccu/mL)
[21] = M. gallisepticum PG31 (10^8 ccu/mL)
[22] = in words, infection inhibition, virucidal and adsorption inhibition assays

Row | Structure (SMILES) | TC50 [3] | MNTC [3] | IC50 ([4]; Inactivation) | IC50 ([4]; Prevention) | IC50 ([4]; Treatment) | IC50 ([5]; Inactivation) | IC50 ([5]; Prevention) | IC50 ([5]; Treatment) | TC50 [6] | MNTC [6] | IC50 ([7]; Inactivation) | IC50 ([7]; Prevention) | IC50 ([7]; Treatment) | TC50 [8] | MNTC [8] | also measured
1 | NCC[C@H](O)C(=O)N[C@@H]1C[C@H](N)[C@@H](O[C@H]2O[C@H](CN)[C@@H](O)[C@H](O)[C@H]2O)[C@H](O)[C@H]1O[C@H]1O[C@H](CO)[C@@H](O)[C@H](N)[C@H]1O [Amikacin] |  |  |  |  |  |  |  |  |  |  |  |  |  |  |  | MIC [1, 18]: 3.2 µg/mL (≈ 5.46 µM); MIC [2, 19]: 1.6 µg/mL (≈ 2.73 µM)
2 | N#CCC(=O)N/N=C/c1cnc2ccccc2n1 [Cy1, bi-deoxy Cyadox] | 23.40 ± 2.14 µg/mL (≈ 97.8 µM) | 2.0 µg/mL | -- | -- | -- | -- | -- | -- | 32.97 ± 2.35 µg/mL (≈ 138 µM) | 2.0 µg/mL | -- | -- | -- | 37.83 ± 1.67 µg/mL (≈ 158 µM) | 3.9 µg/mL | 
3 | CC[C@@H](CO)NCCN[C@@H](CC)CO [Ethambutol, ethambutol] |  |  |  |  |  |  |  |  |  |  |  |  |  |  |  | MIC [1, 18]: 0.025 µg/mL (≈ 0.122 µM); MIC [2, 19]: 0.025 µg/mL (≈ 0.122 µM)
4 | Cc1c(C(C)O)[n+]([O-])c2ccccc2[n+]1[O-] (centres unmarked) [M6, carbonyl reduction mequindox] | 78.82 ± 3.57 µg/mL (≈ 358 µM) | 2.0 µg/mL | -- | -- | -- | -- | -- | -- | 41.26 ± 1.27 µg/mL (≈ 187 µM) | 2.0 µg/mL | -- | -- | -- | 89.82 ± 1.57 µg/mL (≈ 408 µM) | 2.0 µg/mL | 
5 | NC(=O)c1cnccn1 [Pyrazinamide, pyrazinamide] |  |  |  |  |  |  |  |  |  |  |  |  |  |  |  | MIC [1, 18]: 0.8 µg/mL (≈ 6.5 µM); MIC [2, 19]: 0.8 µg/mL (≈ 6.5 µM)
6 | N#CCC(=O)N/N=C/c1c[n+]([O-])c2ccccc2n1 [Cy10, N1-deoxy cyadox] | 25.27 ± 1.55 µg/mL (≈ 99 µM) | 2.0 µg/mL | -- | -- | -- | -- | -- | -- | 49.2 ± 1.93 µg/mL (≈ 193 µM) | 2.0 µg/mL | -- | -- | -- | 33.62 ± 1.85 µg/mL (≈ 132 µM) | 2.0 µg/mL | 
7 | CC(=O)N1CCN(c2ccc(OCC3COC(Cn4ccnc4)(c4ccc(Cl)cc4Cl)O3)cc2)CC1 (centres unmarked) [KCZ, ketoconazole] |  |  |  |  |  |  |  |  |  |  |  |  |  |  |  | MIC ([9]; C. tropicalis 2.2735, deep fungi): 0.5 µg/mL (≈ 0.941 µM); MIC ([9]; Candida tropicalis): 0.5 µg/mL (≈ 0.941 µM); MIC [10]: 0.125 µg/mL (≈ 0.235 µM); MIC [11]: 0.25 µg/mL (≈ 0.47 µM); MIC ([12]; C. albicans 2.4122, deep fungi): 0.5 µg/mL (≈ 0.941 µM); MIC ([12]; C. albicans 90028, deep fungi): 0.25 µg/mL (≈ 0.47 µM); MIC [13]: 0.5 µg/mL (≈ 0.941 µM); MIC ([13]; ATCC4438): 0.5 µg/mL (≈ 0.941 µM); MIC [14]: 0.25 µg/mL (≈ 0.47 µM); MIC ([14]; CBS566094): 0.25 µg/mL (≈ 0.47 µM); MIC [15]: 0.5 µg/mL (≈ 0.941 µM); MIC ([15]; CBS113480): 0.25 µg/mL (≈ 0.47 µM); MIC ([16]; A. fumigatus 3.5301, deep fungi): 0.25 µg/mL (≈ 0.47 µM); MIC ([16]; A. fumigatus 3.5352, deep fungi): 0.5 µg/mL (≈ 0.941 µM)
8 | CN(C)[C@@H]1C(O)=C(C(N)=O)C(=O)[C@@]2(O)C(O)=C3C(=O)c4c(O)cccc4[C@@](C)(O)[C@H]3C[C@@H]12 [Tetracycline, tetracycline] |  |  |  |  |  |  |  |  |  |  |  |  |  |  |  | MIC [17, 20]: 0.4 µg/mL (≈ 0.9 µM); MIC [17, 21]: 0.8 µg/mL (≈ 1.8 µM)
9 | CC(=O)c1nc2ccccc2nc1C [M1, bi-deoxy Mequindox] | 72.90 ± 2.66 µg/mL (≈ 391 µM) | 2.0 µg/mL | -- | -- | -- | -- | -- | -- | 54.8 ± 1.93 µg/mL (≈ 294 µM) | 1.0 µg/mL | -- | -- | -- | 70.77 ± 1.57 µg/mL (≈ 380 µM) | 1.0 µg/mL | 
10 | CO[C@@H]1[C@@H](O[C@@H]2O[C@H](C)[C@@H](O[C@H]3C[C@@](C)(O)[C@@H](OC(=O)CC(C)C)[C@H](C)O3)[C@H](N(C)C)[C@H]2O)[C@@H](CC=O)C[C@@H](C)[C@@H](O)/C=C/C=C/C[C@@H](C)OC(=O)C[C@H]1O [Kitasamycin, kitasamycin] |  |  |  |  |  |  |  |  |  |  |  |  |  |  |  | MIC [17, 20]: 0.05 µg/mL (≈ 0.0636 µM); MIC [17, 21]: 0.05 µg/mL (≈ 0.0636 µM)
11 | NC(=O)c1ncn([C@@H]2O[C@H](CO)[C@@H](O)[C@H]2O)n1 [Ribavirin, ribavirin] |  |  |  |  |  |  |  |  | 67.42 ± 2.58 µg/mL (≈ 276 µM) | 4.0 µg/mL |  |  |  | 75.49 ± 2.54 µg/mL (≈ 309 µM) | 8.6 µg/mL | IC50 ([4]; Porcine parvovirus, Inactivation, read-out: IC50): 0.85 ± 0.17 µg/mL; IC50 ([4]; Porcine parvovirus, Prevention, read-out: IC50): 0.68 ± 0.15 µg/mL; IC50 ([4]; Porcine parvovirus, Treatment, read-out: IC50): 0.49 ± 0.07 µg/mL; effectiveness against PPV in vitro [4, 22]: good inhibitory activity; IC50 ([5]; Infectious bursal disease virus, Inactivation, read-out: IC50): 1.18 ± 0.21 µg/mL; IC50 ([5]; Infectious bursal disease virus, Prevention, read-out: IC50): 0.87 ± 0.18 µg/mL; IC50 ([5]; Infectious bursal disease virus, Treatment, read-out: IC50): 0.58 ± 0.12 µg/mL; effectiveness against IBDV in vitro [5, 22]: good inhibitory activity; IC50 ([7]; Porcine reproductive and respiratory syndrome virus, Inactivation, read-out: IC50): 6.29 ± 0.38 µg/mL; IC50 ([7]; Porcine reproductive and respiratory syndrome virus, Prevention, read-out: IC50): 9.58 ± 0.56 µg/mL; IC50 ([7]; Porcine reproductive and respiratory syndrome virus, Treatment, read-out: IC50): 4.64 ± 0.24 µg/mL; effectiveness against PRRSV in vitro [7, 22]: good inhibitory activity
12 | CN1C[C@@H]2C[C@H]1CN2c1cc2c(cc1F)c(=O)c(C(=O)O)cn2C1CC1 [Danofloxacin, danofloxacin] |  |  |  |  |  |  |  |  |  |  |  |  |  |  |  | MIC [17, 20]: 0.05 µg/mL (≈ 0.14 µM); MIC [17, 21]: 0.05 µg/mL (≈ 0.14 µM)
13 | NC[C@H]1O[C@H](O[C@H]2[C@H](O)[C@@H](O[C@H]3O[C@H](CO)[C@@H](O)[C@H](N)[C@H]3O)[C@H](N)C[C@@H]2N)[C@H](O)[C@@H](O)[C@@H]1O [Kanamycin] |  |  |  |  |  |  |  |  |  |  |  |  |  |  |  | MIC [1]: 0.2 µg/mL (≈ 0.413 µM); MIC ([2]; M. bovis ATCC 19210): 0.2 µg/mL (≈ 0.413 µM)
14 | N#CCC(=O)N/N=C/c1cnc2ccccc2[n+]1[O-] [Cy2, N4-deoxy cyadox] | 51.73 ± 2.96 µg/mL (≈ 203 µM) | 2.0 µg/mL | -- | -- | -- | -- | -- | -- | 35.48 ± 2.87 µg/mL (≈ 139 µM) | 1.0 µg/mL | -- | -- | -- | 96.55 ± 3.12 µg/mL (≈ 378 µM) | 2.0 µg/mL | 
15 | CCC[C@@H]1C[C@@H](C(=O)N[C@@H]([C@H]2O[C@H](SC)[C@H](O)[C@@H](O)[C@H]2O)[C@@H](C)O)N(C)C1 [Lincomycin, lincomycin] |  |  |  |  |  |  |  |  |  |  |  |  |  |  |  | MIC [17, 20]: 8 µg/mL (≈ 19.7 µM); MIC [17, 21]: 8 µg/mL (≈ 19.7 µM)
16 | Cc1c(C(C)O)nc2ccccc2[n+]1[O-] (centres unmarked) [M4, carbonyl reduction N1-deoxy mequindox] | 40.81 ± 1.27 µg/mL (≈ 200 µM) | 3.9 µg/mL | -- | -- | -- | -- | -- | -- | 37.75 ± 2.68 µg/mL (≈ 185 µM) | 1.0 µg/mL | -- | -- | -- | 128.62 ± 2.67 µg/mL (≈ 630 µM) | 3.9 µg/mL | 
17 | Cc1nc2ccccc2nc1C(C)O (centres unmarked) [M5, carbonyl reduction bi-deoxy mequindox] | 40.41 ± 3.21 µg/mL (≈ 215 µM) | 2.0 µg/mL | -- | -- | -- | -- | -- | -- | 38.2 ± 2.09 µg/mL (≈ 203 µM) | 2.0 µg/mL | -- | -- | -- | 89.66 ± 2.14 µg/mL (≈ 476 µM) | 2.0 µg/mL | 
18 | C[C@H]1c2cccc(O)c2C(=O)C2=C(O)[C@]3(O)C(=O)C(C(N)=O)=C(O)[C@@H](N(C)C)[C@@H]3[C@@H](O)[C@@H]21 [Doxycycline, doxycycline] |  |  |  |  |  |  |  |  |  |  |  |  |  |  |  | MIC [17, 20]: 0.1 µg/mL (≈ 0.225 µM); MIC [17, 21]: 0.2 µg/mL (≈ 0.45 µM)
19 | [H]/N=C(/N)N[C@H]1[C@H](O)[C@@H](O)[C@H](O[C@@H]2O[C@@H](C)[C@](O)(C=O)[C@H]2O[C@@H]2O[C@@H](CO)[C@H](O)[C@@H](O)[C@@H]2NC)[C@@H](N/C(N)=N\[H])[C@@H]1O [Streptomycin, streptomycin] |  |  |  |  |  |  |  |  |  |  |  |  |  |  |  | MIC [1, 18]: 0.025 µg/mL (≈ 0.043 µM); MIC [2, 19]: 0.013 µg/mL (≈ 0.0224 µM)
